Measurements from US20140329776A1, “Mitochondria-Targeted Antioxidants for Treatment of Age-Related Brain Disorders” (MITOTECH S.A., priority 2011, published 2014).

How the values were obtained:
[1] = test system: hippocampal slice neurons; assay: long-term potentiation (LTP) of hippocampal slices treated with Aβ after in vivo treatment; design: species or system rat; settings: for neuroprotective activity based on LTP signal, model of Alzheimer disease: administered in vivo to rats prior to extraction of hippocampus, beta-amyloid treatment
Protocol: FIG. 3B is a graphic representation showing the LTP caused by in vitro addition of Aβ, where the decay of LTP of hippocampal slice neurons characterized by a decrease of pop-spike amplitude (%) in a hippocampal slice treated with Aβ.
SkQR1 Aβ was added 15 min before the LTP induction with high-frequency electric stimulation (arrow). The decay of LTP (i.e. decrease of pop-spike amplitude) in a hippocampal slice treated with Aβ can be prevented by SkQR1 treatment.
FIG. 16 is a bar graph comparing the neuroprotective effects of preferred SkQ mitochondria-targeted antioxidants of the invention when administered in vivo in a model of Alzheimer disease.
As a model of cell memory, an electric response of a hippocampal slice (long-term potentiation, LTP) was used (Malenka, et al., Science 285:1870-1874 (1999)). A direct experiment was performed showing the prevention of Aβ toxicity in hippocampus by in vivo treatment of rats with 1 μmol SkQR1 per kg of body weight. The compound was injected intraperitoneally into the animal 24 hours before hippocampal slices were obtained to measure LTP. Some slices were pretreated with Aβ for 15 minutes. As is seen in FIG. 3B, Aβ impaired LTP relative to untreated control.
FIG. 16 provides a comparison of the neuroprotective effects of SkQ1, SkQR1 and C12TPP based on the LTP signal in neurons of hippocampal slices. Ab stands for beta-amyloid treatment. […] All SkQs and C12TPP were administered in vivo to rats prior the extraction of hippocampus.

[2] = test system: mROS; settings: in vivo; cited from earlier work
[3] = test system: rats after transient middle cerebral artery occlusion; assay: transient middle cerebral artery occlusion, brain infarct volume (TTC staining); assay type: in vivo, rat; settings: single intraperitoneal injection 0.5-2 μmol/kg body weight; 24 h before 60 min occlusion; studied 24 h after occlusion
Protocol: Several effects of SkQs were observed when brain functions were studied. Where indicated, 1 μmol SkQR1 per kg of body weight was injected intraperitoneally 24 h before the 60 min occlusion of the artery. The ischemia effect was studied 24 h after the occlusion (Plotnikov, et al., Biochemistry (Mosc) 75:145-150 (2010) here and below, p<0.05 for SkQ effect).

[4] = test system: Wistar rats; assay: damaged focal volume (morphometry) after focal open severe brain trauma; assay type: in vivo, rat; settings: seventh day after trauma; 100 nmol/kg i.p. 1 h after trauma then daily for four days; mean±SEM
Protocol: In this study, we, the inventors, employed our modification of the earlier used model of focal open severe brain trauma in rats. The study was performed on male Wistar rats with body weight of 180-250 g. Before the surgery, the animals were anesthetized by an intraperitoneal injection of 3% chloral hydrate (330 mg/kg). To create the trauma, the left frontal part of the skull was trepanized above the sensorimotor cortex zone, and a movable Teflon piston 4 mm in diameter with depth of insertion of 2.5 mm was placed into it; this piston was struck from the height of 10 cm with a 50-g load sliding along a directing rail. Localization of the sensorimotor cortex zone was determined based on data described in [14]. […]
A magnetic resonance imaging (MRI) study was performed as described in [15] using a BioSpec 70/30 (Bruker, Germany) with magnetic field induction of 7 T and gradient of 105 mT/m. The damaged focal volume was determined morphometrically on the 7th day after the trauma. […] The volume of the lesion was determined as a cylinder with V=ΣSn×d, where d is thickness of the section pair (200 μm); Sn is the area of the lesion in the section in mm2; Σ is the sum of volumes of ischemic damage in the sections using an Image J program (Bethesda Md., USA).
The results are expressed as the mean±standard error of mean. […]

[5] = test system: rats after transient middle cerebral artery occlusion; assay: limb-placing test after transient middle cerebral artery occlusion; assay type: in vivo, rat; settings: after injection of SkQR1; first day after induction of ischemia
Protocol: Behavioral tests were performed 1 day before the induction of ischemia and on the first day after the induction of ischemia. The limb-placing test was used to evaluate the neurological deficit estimated by a conventional 14-point scale with modifications as described in Jolkkonen, et al., Eur. J. Pharmacol., 400:211-219 (2000)). The test had 7 limb-placing tasks that assess the sensorimotor integration of forelimb and hindlimb responses to tactile and proprioceptive stimulation.

[6] = test system: Wistar rats; assay: limb-placing test after focal open severe brain trauma; assay type: in vivo, rat; settings: 100 nmol/kg i.p. 1 h after trauma then daily for four days, 12-score scale, mean±SEM
Protocol: In this study, we, the inventors, employed our modification of the earlier used model of focal open severe brain trauma in rats. The study was performed on male Wistar rats with body weight of 180-250 g. Before the surgery, the animals were anesthetized by an intraperitoneal injection of 3% chloral hydrate (330 mg/kg). To create the trauma, the left frontal part of the skull was trepanized above the sensorimotor cortex zone, and a movable Teflon piston 4 mm in diameter with depth of insertion of 2.5 mm was placed into it; this piston was struck from the height of 10 cm with a 50-g load sliding along a directing rail. Localization of the sensorimotor cortex zone was determined based on data described in [14].
SkQR1 (100 nmol/kg) was injected intraperitoneally 1 h after the trauma and then daily in the same dose during the following four days.
Behavioral “limb-placing test” was performed 24 h before the operation and then on the third and seventh days after the trauma. […] The resulting score on this scale is determined as the sum of points obtained in six tests assessing the response of the forelimbs and hindlimbs to tactile and proprioceptive stimulation in the presence of obvious reflexes. […]
The results are expressed as the mean±standard error of mean. […] The statistical significance of differences in the damaged volumes was assessed using Student's t-test at the significance level of p<0.05.

[7] = test system: hippocampal slice neurons; assay: LTP of hippocampal slices, nootropic activity; settings: administered in vivo; FIG. 15
Description: FIG. 15 is a bar graph showing the nootropic activity of preferred SkQ mitochondria-targeted antioxidants of the invention when administered to animals in vivo.

[8] = test system: AD patients; settings: human, in vivo; cited from earlier work

CCCCCCCCCCCC[P+](c1ccccc1)(c1ccccc1)c1ccccc1 [C12TPP]
neuroprotective activity compared to SkQ ([1]; FIG. 16): lower but still sufficient
neuroprotective activity based on LTP signal, model of Alzheimer disease ([1]; FIG. 16): neuroprotective activity

COC1=C(OC)C(=O)C(CCCCCCCCCC[P+](c2ccccc2)(c2ccccc2)c2ccccc2)=C(C)C1=O [MitoQ]
outcome of targeting the antioxidant to quench mROS [2]: failed

CC/N=c1/cc2oc3cc(NCC)c(C)cc3c(-c3ccccc3C(=O)OCCCCCCCCCCC3=CC(=O)C(C)=C(C)C3=O)c-2cc1C [SkQR1, plastoquinonyl decylrhodamine 19]
infarct volume in brain [3]: strongly decreased
damaged volume [4]: 15±4 mm3
behavioral defects, limb-placing test [5]: decrease
neuroprotective activity based on LTP signal, model of Alzheimer disease ([1]; FIG. 16): neuroprotective activity
impairment (decay) of LTP caused by Aβ ([1]; in vivo treatment (SkQR1 1 μmol/kg i.p. 24 hours before slices), Aβ added to slices for 15 min): prevented such impairment
limb-placing test score, right limbs ([6]; seventh day after trauma): 7.4±0.8 points
limb-placing test score, right limbs ([6]; third day after trauma): 6.6±0.8 points
LTP signal (nootropic activity) [7]: clearly stimulates LTP

O=C1O[C@H]([C@@H](O)CO)C(O)=C1O [ascorbate]
safety [8]: safe

O=C(O)CCCCC1CCSS1 (stereo not drawn) [α-lipoate]
efficacy in treating AD patients [8]: ineffective
safety [8]: safe

Cc1c(C)c2c(c(C)c1O)CC[C@@](C)(CCC[C@H](C)CCC[C@H](C)CCCC(C)C)O2 [α-tocopherol]
efficacy in treating AD patients [8]: ineffective
safety [8]: safe
